Reference: patent US7223718B2, “Enhanced glyphosate herbicidal concentrates” (Falcon Lab LLC, priority 2005, dated 2007)

Experiment: Hygroscopicity: exposure to air on a balance for three days
Type: physicochemical
Conditions: exposed to air on a balance
Text: A mechanical mixture of 10 gm. of dry, solid isopropylammonium glyphosate and 20 gm. of dry, solid ammonium pelargonate was made by thoroughly grinding and mixing the two solids to assure a homogeneous powder. The resulting 30 gm. was exposed to the air in a weighing dish on a balance to determine if the mixture was hygroscopic or dry. […] To this mixture was further added 3 gm. of powdered 85% potassium hydroxide and the solids again thoroughly mixed. This solid mixture contained the equivalent of 30% isopropylammonium glyphosate and 60% ammonium pelargonate, being a solid enhanced glyphosate herbicide concentrate.
A 50 gm. portion of a 53.8% glyphosate solution as the isopropylammonium salt (Monsanto Aquamaster®) was placed in a glass shallow evaporating dish. To this was added 10 gm. of 28-30% ammonium hydroxide and the solution thoroughly mixed by slowly tilting the dish. The dish was then exposed to air at ambient conditions for 2 weeks during which time the water evaporated off leaving a white crystalline solid weighing 38.9 gm. […] By the method it was prepared and the yield obtained it was determined to be the mixed salt ammonium, (isopropylammonium)glyphosate. The melting point was 200-205° C. (isopropyl ammonium glyphosate melts at 155-158° C.) The FT-IR spectrum in KBr is: […]

Substance: ammonium, (isopropylammonium)glyphosate
- Hygroscopicity (weight change on exposure to air): non-hygroscopic
